In patent US20250034165A1, “COMPOUND CONTAINING CYCLOALKYL OR HALOALKYL” (CHIA TAI TIANQING PHARMACEUTICAL GROUP CO., LTD., priority 2021, published 2025):

Columns and labels:
[1] = test system: BAF3-EGFR (L858R/T790M/C797S) cells; assay: Inhibition of proliferation of BAF3-EGFR (L858R/T790M/C797S) cells, CCK-8; format: cell-based; conditions: Ba/F3 EGFR, 72 h, read-out: BAF3(EGFR T790M L858R C797S) cell inhibitory activity IC50
Summary of the method: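 BaF3 EGFR L858R/T790M/C797S cells seeded at 1.5×10^5 cells/mL in RPMI + 10% FBS, 37 °C, compound added after overnight, duplicates. Viability by CCK-8; % inhibition vs untreated and blank, IC50 by four-parameter fit.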

[2] = test system: BAF3-EGFR (del19/T790M/C797S) cells; assay: Inhibition of proliferation of BAF3-EGFR (Del19/T790M/C797S) cells, CCK-8; format: cell-based; conditions: Ba/F3 EGFR-Del19/T790M/C797S, 72 h, read-out: BAF3(EGFR T790M Del19 C797S) cell inhibitory activity IC50
Summary of the method: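 Cells seeded at 1.0×10^5 cells/mL in RPMI + 10% FBS, cultured overnight at 37° C, 5% CO2, then compound added in duplicate wells, with untreated cells as negative control. Inhibition rate calculated against negative-control and blank means. IC50 obtained from four-parameter fit of inhibition versus log concentration.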

[3] = test system: PC-9 EGFR-Del19-T790M-C797S cells; assay: Inhibition of proliferation of PC-9-EGFR (Del19 T790M C797S) cells, CCK-8; format: cell-based; conditions: 72 h, read-out: PC-9-EGFR (Del19 T790M C797S) cell inhibitory activity IC50
Summary of the method: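 Cells seeded at 2×10^4 cells/mL were treated 72 h with compound at 1000 nM-0.06 nM final, in replicate wells. CCK-8 absorbance at 450 nm after 2 h gave inhibition rate relative to negative control and blank. IC50 from four-parameter fit against log concentration.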

[4] = In vivo pharmacokinetics in ICR mice; conditions: mouse, plasma, PO, 10 mg/kg intragastric
Summary of the method: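 ICR mice (18–20 g, 9 per group, fasted 12 h) received 10 mg/kg of compound intragastrically. Orbital blood was taken from 0 min to 24 h and EDTA-K2 plasma was prepared. Plasma was precipitated with acetonitrile containing diazepam as internal standard and analysed by LC/MS/MS.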

NCI-H1975(L858R T790M) = assay: Nude mouse subcutaneous xenograft tumor model of NCI-H1975 cells; format: in vivo, nude mice; conditions: once a day, 14 days
Text: Evaluation on drug effect on nude mouse subcutaneous xenograft tumor model of NCI-H1975 cells: NCI-H1975 cells were inoculated subcutaneously in the right axilla of SPF-grade female nude mice (source: Jiangsu Huachuang Sino Pharmaceutical Technology Co., Ltd.) at 1×10^6 cells/mouse. When the mean tumor volume reached about 200 mm^3, the animals were grouped.
(§1) The day of grouping was defined as day 0, and intragastric administration was started on day 0 and performed once a day. The tumor volume was measured 2-3 times a week, meanwhile, the mice were weighed and the data were recorded; the general behavior of the mice was observed and recorded every day. After the experiment was completed, the tumors were removed, weighed, and photographed.
(§2) Tumor volume TV (mm^3)=½×(a×b^2),
(§3) Relative tumor volume RTV=TVt/TV0,
(§4) Relative tumor proliferation rate T/C (%)=(TRTV/CRTV)×100%,
(§5) Tumor growth inhibition rate TGI (%)=(1−TW/TW0)×100%;

[5] = test system: PC9-EGFR (del19-T790M-C797S); assay: Nude mouse subcutaneous xenograft tumor model of PC9-EGFR (del19-T790M-C797S) tumor mass; format: in vivo, nude mice
Text: Evaluation on drug effect on nude mouse subcutaneous xenograft tumor model of PC9-EGFR (del19-T790M-C797S) tumor mass: PC9-EGFR (del19-T790M-C797S) cells were inoculated subcutaneously in the right axilla of SPF-grade female nude mice (source: Laboratory Animal Operation Department, Shanghai Institute for Biomedical and Pharmaceutical Technologies) at 1×10^7 cells/mouse for the F1 generation. The nude mouse tumor tissue of the F1 generation was taken out, and the necrotic tissue was removed. Then the rest of the tumor tissue was cut into tumor masses of about 1.5-2 mm and inoculated subcutaneously in the right axilla of the nude mice. When the mean tumor volume reached about 200 mm^3, the animals were grouped.
as §1, §2, §3, §4, §5

[6] = biological target: EGFR (d746-750/T790M/C797S) (Homo sapiens (Human), UniProt P00533, C797S/DEL746-750/T790M); assay: Inhibitory activity for EGFR (d746-750/T790M/C797S) kinase; format: biochemical; conditions: ATP 5 μM; read-out: EGFR(d19/T790M/C797S) (IC50)
Summary of the method: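 EGFR d746-750/T790M/C797S (0.03 ng/μL final) preincubated 30 min with compound (10 nM–0.0024 nM, 4-fold, 7 points). Reaction with 5 μM ATP and 0.1 μM ULight-poly GT, 2 h at room temperature; EDTA stop, Eu-anti-phosphotyrosine TR-FRET read at 665 nm, IC50 by four-parameter fit.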

[7] = In vitro stability in liver microsomes; format: in vitro ADME; conditions: Human liver microsome
Method: 300 μL of the final incubation system contains 30 μL of liver microsomes (protein concentration: 0.15 mg/mL), 30 μL of NADPH+MgCl2, 3 μL of the test compound (in acetonitrile), and 237 μL of PBS buffer (pH 7.4). The proportion of the organic solvent (acetonitrile) was 1%. Samples were prepared in duplicate of 0.3 mL for each species (e.g., human or mouse liver microsomes). Tubes each containing 270 μL of a mixed solution of substrate and enzyme […] were pre-incubated at 37° C. for 5 min. 30 μL of NADPH+MgCl2 was added and the mixture was mixed. 50 μL of the mixture was taken at 0 min, 15 min, 30 min, and 60 min, and 300 μL of glacial acetonitrile containing an internal standard was added to terminate the reaction.
50 μL of the incubated sample was added with 300 μL of glacial acetonitrile containing an internal standard (20 ng/mL diazepam) for precipitation. The mixture was vortexed for 5 min, and centrifuged (12,000 rpm, 4° C.) for 10 min. 75 μL of supernatant was taken and diluted with 75 μL of ultrapure water. After being homogeneously mixed, 0.5 μL of the resulting sample was injected for analysis.

[8] = biological target: EGFR (d746-750 (d19)/T790M) (Homo sapiens (Human), UniProt P00533, DEL746-750/T790M); assay: Inhibitory activity for EGFR (d746-750 (d19)/T790M) kinase; format: biochemical; conditions: ATP 5 μM
Summary of the method: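 Recombinant EGFR d746-750/T790M (0.003 ng/μL final) preincubated 30 min with compound (10 to 0.0024 nM, 4-fold steps), then 5 μM ATP and 0.1 μM ULight-poly GT added for 2 h at room temperature. EDTA stop, Eu-anti-phosphotyrosine TR-FRET read (665 nm); IC50 by four-parameter fit.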

[9] = 15 mpk*4 + 10 mpk*25 (i.g), 29 days

Sequence of EGFR (d746-750/T790M/C797S) (P00533 other isoform, or with tags, fused parts or gaps T790M/C797S/del 1-694/del 746-750 limits assumed): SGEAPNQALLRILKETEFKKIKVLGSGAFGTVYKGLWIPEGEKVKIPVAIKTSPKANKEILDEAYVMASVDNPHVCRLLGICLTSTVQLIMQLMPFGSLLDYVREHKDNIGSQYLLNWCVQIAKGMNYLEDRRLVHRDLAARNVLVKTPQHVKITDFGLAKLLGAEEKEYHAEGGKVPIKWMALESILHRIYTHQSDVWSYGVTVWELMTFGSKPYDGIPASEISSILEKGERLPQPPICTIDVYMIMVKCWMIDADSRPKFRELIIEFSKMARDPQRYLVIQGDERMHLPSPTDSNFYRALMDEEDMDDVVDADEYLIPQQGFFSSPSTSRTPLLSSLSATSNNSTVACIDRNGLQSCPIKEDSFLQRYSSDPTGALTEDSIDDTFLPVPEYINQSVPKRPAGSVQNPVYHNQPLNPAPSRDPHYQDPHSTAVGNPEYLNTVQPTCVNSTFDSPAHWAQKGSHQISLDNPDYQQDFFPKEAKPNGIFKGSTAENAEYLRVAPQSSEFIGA
Sequence of EGFR (d746-750 (d19)/T790M) (P00533 other isoform, or with tags, fused parts or gaps T790M/del 1-668/del 746-750 limits assumed): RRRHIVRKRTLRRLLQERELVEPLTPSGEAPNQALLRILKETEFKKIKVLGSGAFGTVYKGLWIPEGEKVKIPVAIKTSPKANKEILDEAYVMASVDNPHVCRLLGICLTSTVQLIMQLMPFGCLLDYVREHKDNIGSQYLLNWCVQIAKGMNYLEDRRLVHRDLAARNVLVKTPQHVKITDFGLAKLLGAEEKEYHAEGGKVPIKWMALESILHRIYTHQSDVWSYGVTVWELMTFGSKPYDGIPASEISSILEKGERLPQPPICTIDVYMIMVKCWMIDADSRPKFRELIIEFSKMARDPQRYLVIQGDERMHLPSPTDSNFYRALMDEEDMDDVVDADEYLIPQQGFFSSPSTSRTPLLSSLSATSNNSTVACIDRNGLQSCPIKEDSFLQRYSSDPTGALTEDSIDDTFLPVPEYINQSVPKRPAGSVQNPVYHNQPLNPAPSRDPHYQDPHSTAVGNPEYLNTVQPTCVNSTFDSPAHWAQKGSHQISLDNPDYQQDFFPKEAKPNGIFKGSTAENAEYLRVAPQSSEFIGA

IC50 [1] | IC50 [2] | IC50 [3] | IC50 [6] | Stability in liver microsomes (residual %, T = 60 min) [7] | IC50 [8] | SMILES | also measured
< 5 nM | < 1 nM | < 50 nM |  |  |  | Cc1cc2cc(n1)-c1cnn(C)c1OCCC[C@@H](C1CC1)CN1/C(=N/C2=O)Nc2ccc(N[C@@H](C)CN(C)C)cc21 [Example 66] | AUC(0-inf) [4]: 2200 ng·h/mL; AUC(0-t) ([4]; read-out: AUC(0-t)): 2040 ng·h/mL; Cmax ([4]; read-out: Cmax): 143 ng/mL; MRT last ([4]; read-out: MRT(0-t)): 8.26 h; Tmax ([4]; read-out: Tmax): 6 h; half-life ([4]; read-out: T½ (converted)): 5.98 h; Tumor growth inhibition % (tumor weight, d 14) (NCI-H1975(L858R T790M); 5 mpk (i.g)): 73.5% (tumor; Tumor growth inhibition % (volume, d 12) (NCI-H1975(L858R T790M); 5 mpk (i.g)): 71.3%; Tumor growth inhibition % (tumor weight, d 14) (NCI-H1975(L858R T790M); 10 mpk (i.g)): 87.5% (tumor; Tumor growth inhibition % (volume, d 12) (NCI-H1975(L858R T790M); 10 mpk (i.g)): 86.2%; Tumor growth inhibition % (tumor weight, d 29) [5, 9]: 95.8% (tumor weight, d 29); Tumor growth inhibition % (volume, d 27) [5, 9]: 94.3% (volume, d 27); Tumor growth inhibition % (tumor weight, d 29) ([5]; 30 mpk*4 (i.g), 4 days): 56.5%; Tumor growth inhibition % (volume, d 27) ([5]; 30 mpk*4 (i.g), 4 days): 60.0% (volume, d 27)
< 5 nM |  | < 50 nM | 0.062 nM | 97.30%. |  | Cc1cc2cc(n1)-c1cnn(C)c1OCCC[C@@H](C1CC1)CN1/C(=N/C2=O)Nc2cc(N[C@H]3CC[C@H](N(C)C)C3)ccc21 [Example 135] | 
< 5 nM | < 1 nM | < 50 nM | 0.012 nM | 80.24% | 0.0081 nM | Cc1cc2cc(n1)-c1cnn(C)c1OCCC[C@@H](C1CC1)CN1/C(=N/C2=O)Nc2cc(NCCCN(C)C)ccc21 [Example 44] | 
< 5 nM |  | < 50 nM |  | 82.55% | 0.092 nM | Cc1cc2cc(n1)-c1cnn(C)c1OCCC[C@@H](C1CC1)CN1/C(=N/C2=O)Nc2ccc(N[C@H]3CC[C@H](N(C)C)CC3)cc21 [Example 100] | 
< 5 nM | < 1 nM | < 50 nM | 0.018 nM |  | 0.013 nM | Cc1cc2cc(n1)-c1cnn(C)c1OCCC[C@@H](C1CC1)CN1/C(=N/C2=O)Nc2ccc(N(C)CCN(C)C)cc21 [Example 45] | Tumor growth inhibition % (tumor weight, d 14) (NCI-H1975(L858R T790M); 10 mpk (i.g)): 76.2% (tumor; Tumor growth inhibition % (volume, d 12) (NCI-H1975(L858R T790M); 10 mpk (i.g)): 76.6%
< 5 nM | < 1 nM | < 50 nM | 0.027 nM | 96.11% | 0.017 nM | Cc1cc2cc(n1)-c1cnn(C)c1OCCC[C@@H](C1CC1)CN1/C(=N/C2=O)Nc2cc(NC3CCN(C(C)C)CC3)ccc21 [Example 47] | 
< 5 nM | < 1 nM | < 50 nM | 0.027 nM | 95.68% | 0.017 nM | CCN1CCC(Nc2ccc3c(c2)N/C2=N\C(=O)c4cc(C)nc(c4)-c4cnn(C)c4OCCC[C@@H](C4CC4)CN23)CC1 [Example 48] | 
< 5 nM |  | < 50 nM |  | 84.54% | 0.091 nM | Cc1cc2cc(n1)-c1cnn(C)c1OCCC[C@@H](C1CC1)CN1/C(=N/C2=O)Nc2ccc(N[C@H]3CC[C@@H](N(C)C)CC3)cc21 [Example 99] | 
< 5 nM |  | < 50 nM | 0.023 nM | 94.30% | 0.014 nM | Cc1cc2cc(n1)-c1cnn(C)c1OCCC[C@@H](C1CC1)CN1/C(=N/C2=O)Nc2cc(NC3CCN(C)CC3)ccc21 [Example 10] | 
< 5 nM |  | < 50 nM | 0.08 nM | 95.64% |  | Cc1cc2cc(n1)-c1cnn(C)c1OCCC[C@@H](C1CC1)CN1/C(=N/C2=O)Nc2cc(N[C@H]3CC[C@@H](N(C)C)C3)ccc21 [Example 131] | 
< 5 nM |  | < 50 nM | 0.073 nM | 83.66% |  | Cc1cc2cc(n1)-c1cnn(C)c1OCCC[C@@H](C1CC1)CN1/C(=N/C2=O)Nc2cc(N[C@H]3C[C@H](N(C)C)C3)ccc21 [Example 126] | 
< 5 nM | < 1 nM |  | 0.013 nM | 64.73% | 0.011 nM | Cc1cc2cc(n1)-c1cnn(C)c1OCCC[C@@H](C1CC1)CN1/C(=N/C2=O)Nc2cc(NCCN3CCCC3)ccc21 [Example 72] | 
